From US20060074061A1, “Formulations of glucocorticoids to treat pathologic ocular angiogenesis” (priority 2003, published 2006)

Assay: Topical anecortave acetate in patients with glucocorticoid induced ocular hypertension (IOP)
Format: in vivo, human
Details: patients (n=15) with glucocorticoid induced ocular hypertension; 1% eye drops topically three times per day for up to 12 weeks; glucocorticoid medication continued; IOP before treatment 29 mm Hg; significantly reduced
Method: Patients (η=15) with documented glucocorticoid induced ocular hypertension were treated topically with 1% anecortave acetate eye drops three times per day for up to 12 weeks. The patients continued to receive their glucocorticoid medication.

With CC(=O)OCC(=O)[C@@]1(O)CC[C@H]2[C@@H]3CCC4=CC(=O)CC[C@]4(C)C3=CC[C@@]21C [anecortave acetate, 4,9(11)-pregnadien-17α,21-diol-3,20dione-21-acetate] the “IOP after anecortave acetate treatment” value was 19-22 mm Hg.
